Earlier results in article PMC10011554, “BET inhibitor trotabresib in heavily pretreated patients with solid tumors and diffuse large B-cell lymphomas” (Nature Communications, 2023).
Read-outs that look alike come from different tables or passages of the source.

Key:
[1] = system: relapsed or refractory lymphomas; settings: cited from earlier work
[2] = system: SU-DHL-4 (GCB DLBCL); parameters: method as in Report CC-90010-Pharm-1018; settings: SU-DHL-4, Table 2, ref Report CC-90010-Pharm-1018; read-out: absolute IC50, proliferation; cited from earlier work
[3] = system: WSU-DLCL2 (GCB DLBCL); parameters: method as in Report CC-90010-Pharm-1018; settings: WSU-DLCL2, Table 2, ref Report CC-90010-Pharm-1018; read-out: absolute IC50, proliferation; cited from earlier work
[4] = system: SU-DHL-4 (DOX-R); parameters: method as in Report CC-90010-Pharm-1018; settings: Table 2, ref Report CC-90010-Pharm-1018, read-out: absolute IC50, proliferation; cited from earlier work
[5] = system: OCI-LY-10 (ABC DLBCL); parameters: method as in Report CC-90010-Pharm-1018; settings: OCI-LY-10, Table 2, ref Report CC-90010-Pharm-1018; read-out: absolute IC50, proliferation; cited from earlier work
[6] = system: WSU-DLCL2 (DOX-R); parameters: method as in Report CC-90010-Pharm-1018; settings: Table 2, ref Report CC-90010-Pharm-1018, read-out: absolute IC50, proliferation; cited from earlier work
[7] = system: U-2932 (DOX-R); parameters: method as in Report CC-90010-Pharm-1018; settings: Table 2, ref Report CC-90010-Pharm-1018, read-out: absolute IC50, proliferation; cited from earlier work
[8] = system: U-2932 (ABC DLBCL); parameters: method as in Report CC-90010-Pharm-1018; settings: U-2932, Table 2, ref Report CC-90010-Pharm-1018; read-out: absolute IC50, proliferation; cited from earlier work
[9] = system: OCI-LY-10 (DOX-R); parameters: method as in Report CC-90010-Pharm-1018; settings: Table 2, ref Report CC-90010-Pharm-1018, read-out: absolute IC50, proliferation; cited from earlier work
[10] = parameters: method as in Amorim, 2016; settings: ref Amorim, 2016; cited from earlier work
[11] = system: GBM3 GBM PDX; parameters: method as in Unpublished data from Celgene Corporation; settings: GBM3, TMZ 50 mg/kg IP x 3 Q2 weeks alone, ref Unpublished data from Celgene Corporation; cited from earlier work
[12] = system: basal cell carcinoma; settings: cited from earlier work
[13] = cited from earlier work
[14] = ref ODOMZO European Public Assessment Report

**Q.** Which objective responses ([1]; out of 64 relapsed or refractory lymphomas, ref Blum, 2018) does the source give for `Cc1noc2c1-c1ccccc1C(c1ccc(Cl)cc1)=N[C@H]2CC(N)=O` [CPI-0610] here?
**A.** 5 patients

**Q.** Which results are given for `COc1cccc2c1C(=O)c1c(O)c3c(c(O)c1C2=O)C[C@@](O)(C(=O)CO)C[C@@H]3O[C@H]1C[C@H](N)[C@H](O)[C@H](C)O1` [Doxorubicin, reference compound]?
**A.** IC50 [2]: ~10 nM; IC50 [3]: 10 nM; IC50 [4]: 3570 nM; IC50 [5]: 41 nM; IC50 [6]: 3270 nM; IC50 [7]: 1870 nM; IC50 [8]: 20 nM; IC50 [9]: 3660 nM

**Q.** Which “Grade 3-4 thrombocytopenia” value [10] does the source give for `Cc1sc2c(c1C)C(c1ccc(Cl)cc1)=N[C@@H](CC(=O)Nc1ccc(O)cc1)c1nnc(C)n1-2` [OTX-015] here?
**A.** 58%

**Q.** And the “median time to thrombocytopenia nadir (Grade 4) from starting treatment” value [10]?
**A.** 18 days

**Q.** And the toxic effect anaemia [10]?
**A.** 91%

**Q.** And the toxic effect diarrhea [10]?
**A.** 47%

**Q.** What about the toxic effect fatigue [10] of the same compound?
**A.** 27%

**Q.** What about the toxic effect nausea [10] of the same compound?
**A.** 24%

**Q.** And the toxic effect neutropenia [10]?
**A.** 51%

**Q.** What about the toxic effect thrombocytopenia [10] of the same compound?
**A.** 96%

**Q.** With `Cc1sc2c(c1C)C(c1ccc(Cl)cc1)=N[C@@H](CC(=O)NCCCN1CCN(C)CC1)c1nnc(C)n1-2` [RG6146] as the compound, how does the ORR ([1]; relapsed/refractory MYC-expressing DLBCL patients, ref Caimi, 2017) read?
**A.** 11%

**Q.** Which TGI [11] does the source give for `Cn1nnc2c(C(N)=O)ncn2c1=O` [TMZ, temozolomide, reference compound] here?
**A.** 3%

**Q.** With `Cc1c(C(=O)Nc2ccc(N3C[C@@H](C)O[C@@H](C)C3)nc2)cccc1-c1ccc(OC(F)(F)F)cc1` [sonidegib] as the compound, how does the “independently reviewed response rate” value ([12]; locally advanced BCC, ref Migden, 2015a) read?
**A.** 58%

**Q.** What about the “LaBCC with investigator-assessed responses lasting at least six months” value ([12]; ref Migden, 2015a) of the same compound?
**A.** 39%

**Q.** And the “subjects discontinued for adverse reactions” value [13, 14]?
**A.** 28%

**Q.** And the “subjects with dose adjustments for adverse reactions” value [13, 14]?
**A.** 32%

**Q.** Which results are given for `CS(=O)(=O)c1ccc(C(=O)Nc2ccc(Cl)c(-c3ccccn3)c2)c(Cl)c1` [vismodegib]?
**A.** response rate ([12]; locally advanced BCC, ref ERIVEDGE European Public Assessment Report): 42.9%; independently reviewed response rate ([12]; metastatic BCC, ref ERIVEDGE European Public Assessment Report): 30.3%; median duration of response ([12]; ref ERIVEDGE European Public Assessment Report): 7.6 months; subjects who withdrew from treatment due to adverse events ([13]; at least 12 months follow up, ref Bassett-Seguin, 2015): 36%
